Like-named read-outs stand apart in the source and are kept apart here.

In data set [1] the test system is osteosarcoma cell line SJSA-1. Description: Cell viability (MTT) assay, SJSA-1. The following applies: for Viability of Cells (% of Control): 72 h, MTT. Format: cell-based. As for the experimental part: (§1) To investigate the selectivity of these derivatives towards different tumor cell lines, we also selected HepG2 and osteosarcoma cell line SJSA-1 cells to evaluate the anti-proliferation activity of the derivatives. […] Except for compounds A2 and A11, the effects of other compounds on SJSA-1 were not strong.
(§2) The cell lines present in this study were obtained from Procell Life Science & Technology Co. Ltd. MCF-7, HepG2 and SJSA-1 cells were cultured in DMEM medium (DMEM, Gibco) supplemented with 10% fetal bovine serum (FBS, Gibco), 1% penicillin-streptomycin (Hyclone) at 37℃ in a humid environment with 5% CO2. HK-2 cells were cultured in DMEM/F12 (1:1) medium and placed in incubators in the same environment.
(§3) Cell viability was determined by MTT assay. MCF-7, HepG2, SJSA-1 and HK-2 cells (6 × 10^3 cells /well) were seeded in 96-well plates with serum-free medium for 24 h. […] After 48 or 72 h, 10 μL MTT (5 mg/mL, Beyotime) was added and incubated at 37 °C for 4 h. Then 100 μL of lysate was added. After complete dissolution of the crystal, the absorbance was measured at 540 nm and expressed as the average percentage of absorbance between treated and control cells. The value for control cells was set at 100%. Cell survival rate was calculated as the ratio of the absorbance of the cells and negative control after minus the blank absorbance respectively.

For the next data set, the system named is SJSA-1 cells. Description: Flow cytometry apoptosis, Annexin V-FITC/PI staining. The following applies: 24 h. Format: cell-based. As for the experimental part:
Cells were stained with Annexin V-FITC and propidium iodide.
To determine the apoptosis rate, an Annexin V-FITC/PI double staining apoptosis assay kit (Beyotime) was used to detect apoptotic cells by flow cytometry (BD FACSALOBUR), according to the manufacturer’s instructions. Briefly, SJSA-1 cells were treated with 0.1% DMSO, 12.5, 25, and 50 μM of A2 for 24 h. After harvesting, the cells were incubated with 5 μL Annexin V-FITC for 15 min and 10 μL PI for 5 min at 4 °C under dark conditions. Flow cytometry was then performed to analyze the apoptosis rate. Data were analyzed by using BD FACSDiva 8.0.1.

The next data set has as its system HepG2 cells. As to the kind of experiment: Cell viability (MTT) assay, HepG2. Format: cell-based. The following applies: for Viability of Cells (% of Control): 48 h, MTT. As for the experimental part:
as §1, §2, §3

Another data set relates to HK-2 cells. As to the kind of experiment: Cell viability (MTT) assay, HK-2 normal cells (cytotoxicity). It is filed as cell-based. The following applies: HK-2 normal cells, 48 h, MTT. As for the experimental part:
as §2, §3

Data set [2] deals with T1, MDM2 protein (Homo sapiens, UniProt Q00987).
T1 construct: purchased Protintech (so in the source)
T1 sequence (Q00987 whole entry): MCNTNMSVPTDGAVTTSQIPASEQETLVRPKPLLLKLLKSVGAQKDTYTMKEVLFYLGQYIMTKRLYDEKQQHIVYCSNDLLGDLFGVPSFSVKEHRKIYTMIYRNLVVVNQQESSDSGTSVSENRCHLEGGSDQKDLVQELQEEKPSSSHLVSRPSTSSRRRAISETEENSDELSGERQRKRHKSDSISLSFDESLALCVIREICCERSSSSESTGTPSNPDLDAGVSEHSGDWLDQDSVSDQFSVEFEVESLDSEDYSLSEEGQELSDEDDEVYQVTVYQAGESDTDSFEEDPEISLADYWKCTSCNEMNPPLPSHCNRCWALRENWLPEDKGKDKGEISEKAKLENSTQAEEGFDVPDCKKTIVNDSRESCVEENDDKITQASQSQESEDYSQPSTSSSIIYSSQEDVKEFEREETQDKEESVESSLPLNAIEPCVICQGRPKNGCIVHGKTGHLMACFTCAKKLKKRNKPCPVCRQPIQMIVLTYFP
As to the kind of experiment: Surface plasmon resonance (SPR) binding assay. As for the experimental part:
In order to speculate whether A2 effects the p53-MDM2 pathway by binding with MDM2 to inhibit the interaction between MDM2 and p53, we carried out in silico and in vitro binding experiments. […] We used the S-value to evaluate the binding degree of the compound and MDM2 in the molecular docking experiments. The higher the absolute value of this number, the stronger the binding force.
MDM2 protein (5 mg/mL, Protintech) was immobilized on a PCH sensor chip (Octet) and preactivated with EDC/NHS mixture for 420 s at a flow rate of 10 μL/min. A2 was diluted to 100, 50, 25, 12.5, 6.25, 3.13, 0 μM with PBST buffer containing 1% DMSO. The binding time was 600 s, and the flow rate was 20 μL/min. The dissociation time was 180 s, and the affinity constant KD value was obtained by computer fitting and steady-state analysis.

In data set [3] the test system is MCF-7 breast cancer cells. Description: Cell viability (MTT) assay, MCF-7. Format: cell-based. As to conditions: for Viability of Cells (% of Control): 48 h, MTT. As for the experimental part:
MCF-7 is a commonly used tumor cell line.
as §2, §3

Data set [4] relates to MDM2, p53 protein and Bcl-2/Bax in MCF-7 cells. Description: Western blot protein expression, MCF-7. It is filed as cell-based. The following applies: MCF-7, 24 h. The source says:
(§4) In the introduction section, we introduced that the concept that the MDM2-p53 pathway can induce cell apoptosis by up-regulating the expression of p53 protein to inhibit the proliferation of tumor cells, and by blocking the interaction of MDM2 and p53, the activation of p53 results in transcription of MDM2 mRNA, leading to robust MDM2 protein accumulation. In order to verify the effect of A2 on this pathway, we examined the effect of A2 on the protein level of MDM2, p53 protein and Bcl-2/Bax related to apoptosis, as shown in Figure 5. […] The level of Bcl-2/Bax decreased which was consistent with the apoptosis of MCF-7 cells induced by A2. We also investigated the effect of A2 on the SJSA-1 cell line which overexpresses MDM2.
For Western blot analysis, MCF-7 and SJSA-1 cells were treated with different concentrations of A2 for 24 h. The total cell protein was extracted, and proteins were isolated using 10% SDS-PAGE gel system. The proteins on the gel were transferred to PVDF membrane, blocked in 5% BSA at room temperature for 2 h, incubated in primary antibody dilution at 4 °C overnight, and washed with TBST for 3 times, 10 min each. Then, they were transferred to dilute release solution of secondary antibody and incubated at room temperature for 2 h. ECL chemiluminescence development solution (Beyotime, BeyoECL star) was added uniformly and detected on gel imaging system (Clinx ChemiScope, China). Antibodies for blotting were MDM2 (abcam, ab16895), P53 (Proteintech, 10442-1-AP), Bcl-2 (CST, 15071S), Bax (CST, 2772T) and β-actin (abcam, ab8226).

Data set [5] concerns MDM2 and p53 protein in SJSA-1 cell line. Description: Western blot protein expression, SJSA-1. It is filed as cell-based. The following applies: SJSA-1, 24 h, 12.5, 25 and 50 µM.
Description: as §4
For Western blot analysis, MCF-7 and SJSA-1 cells were treated with different concentrations of A2 for 24 h. The total cell protein was extracted, and proteins were isolated using 10% SDS-PAGE gel system. The proteins on the gel were transferred to PVDF membrane, blocked in 5% BSA at room temperature for 2 h, incubated in primary antibody dilution at 4 °C overnight, and washed with TBST for 3 times, 10 min each. […] ECL chemiluminescence development solution (Beyotime, BeyoECL star) was added uniformly and detected on gel imaging system (Clinx ChemiScope, China). […]
(In general: In western blotting, separated proteins are transferred to a membrane and probed.)

The target of data set [6] is T1, MDM2 protein. The arrangement: method as in PMID 22380771.
Data set [7] deals with 95-D cells versus H1299 cells. The arrangement: method as in doi:10.13386/j.issn1002-0306.2015.11.030. The following applies: cited from earlier work.

`CCCCCCNC(=O)[C@H](C)CC(=O)C[C@@H](C)[C@H]1C[C@H](O)[C@@]2(C)C3=C(C(=O)C[C@]12C)[C@@]1(C)CCC(=O)C(C)(C)[C@@H]1C[C@@H]3O` [Compound A2, (n-hexyl)-(7β,15α,25R)-7,15-Dihydroxy-3,11,23-Trioxolanost-8-en-26-oic Amide] gave a melting point of 129.9 to 131.3 °C. Besides, in [1] (SJSA-1, 50 µM), the “Viability of Cells (% of Control)” value is 51.4 ± 1.7 % of Control. Further, the “Viability of Cells (% of Control)” value in data set [1] (SJSA-1, 100 µM) was 28.5 ± 3.4 % of Control. Further, the “anti-proliferation activity on SJSA-1 (in words)” value in data set [1] (SJSA-1, 72 h) is reported as “potent inhibition”. In addition, in the data set on SJSA-1 cells (SJSA-1, 12.5 µM), the “proportion of early phase apoptosis cells (Q3)” value (from here on “proportion”) turned out to be 11.6%. The “proportion” value in the data set with SJSA-1 cells (SJSA-1, 25 µM) is recorded as 12.3%. In addition, the “proportion” value in the data set with SJSA-1 cells (SJSA-1, 50 µM) was 18.7%. The “Viability of Cells (% of Control)” value in the data set with HepG2 cells (HepG2, 25 µM) is recorded as 78.8 ± 1.7 % of Control. The “Viability of Cells (% of Control)” value in the data set with HepG2 cells (HepG2, 50 µM) is given as 48.4 ± 2.1 % of Control. The “anti-proliferation activity on HepG2 (in words)” value in the data set with HepG2 cells (HepG2, 48 h) was “potent anti-proliferation activity”. For the same molecule, in the data set with HK-2 cells (50 µM), the “Viability of Cells (% of Control)” value is on record as 97.1 ± 4.1 % of Control. Moreover, the “Viability of Cells (% of Control)” value in the data set with HK-2 cells (100 µM) is on record as 90.9 ± 3.0 % of Control. Also, the dissociation constant (Kd) at MDM2 protein [2] (immobilized MDM2, steady-state analysis) came out at 1680 nM. Also, binding at MDM2 protein [2] (printed in Figure 7) was put at a Kd of 1648 ± 7 nM. For the same molecule, the “Viability of Cells (% of Control)” value in data set [3] (MCF-7, 25 µM) was 66.76 ± 6.2 % of Control. In data set [3] (MCF-7, 50 µM), the “Viability of Cells (% of Control)” value is reported as 59.4 ± 4.7 % of Control. Moreover, the “Viability of Cells (% of Control)” value in data set [3] (MCF-7, 100 µM) is on record as 50.37 ± 1.7 % of Control. Also, in [3] (MCF-7, 48 h), the “anti-proliferation activity on MCF-7 compared with GAA” value is recorded as “significant anti-proliferation activities”. The “level of Bcl-2/Bax” value in [4] is recorded as “decreased”. Moreover, in data set [4] (50 µM), the MDM2 protein level entry was “increasing trend” and the p53 protein level entry was “increasing trend”. In data set [5], the “expression of MDM2” value was “increased in a dose-dependent manner” and the “expression of p53 protein” value is “increased in a dose-dependent manner”.

Regarding `C[C@H](CC(=O)C[C@@H](C)[C@H]1C[C@H](O)[C@@]2(C)C3=C(C(=O)C[C@]12C)[C@@]1(C)CCC(=O)C(C)(C)[C@@H]1C[C@@H]3O)C(=O)O` [GAA, Ganoderic acid A, reference compound], the Ki at MDM2 protein [6] (read-out: Ki (predicted affinity with MDM2 protein); virtual screening prediction; cited from earlier work) was 147 nM. The “Viability of Cells (% of Control)” value in data set [1] (SJSA-1, 50 µM) is reported as 73.5 ± 1.1 % of Control; in data set [1] (SJSA-1, 100 µM), 74.0 ± 4.0 % of Control; with HepG2 cells (HepG2, 25 µM) it was 83.0 ± 1.5 % of Control; in the data set on HepG2 cells (HepG2, 50 µM) it was 84.0 ± 0.1 % of Control; in the data set with HK-2 cells (50 µM), 117.8 ± 6.3 % of Control; in the data set with HK-2 cells (100 µM), 104.9 ± 7.6 % of Control. Further, the “Viability of Cells (% of Control)” value in data set [3] (MCF-7, 25 µM) is recorded as 109.9 ± 2.1 % of Control; in data set [3] (MCF-7, 50 µM), 86.2 ± 5.2 % of Control; in [3] (MCF-7, 100 µM), 83.6 ± 9.4 % of Control.

As for `CC(=O)O[C@@H]1C(=O)C2=C(C(=O)C[C@H]3C(C)(C)C(=O)CC[C@]23C)[C@]2(C)C(=O)C[C@H]([C@H](C)CC(=O)CC(C)C(=O)O)[C@@]12C` (some centres unmarked) [ganoderic acid F], the Ki at MDM2 protein [6] (virtual screening prediction; read-out: Ki (predicted affinity with MDM2 protein); cited from earlier work) was 212 nM.

`CC(=O)O[C@@H](C/C=C(\C)C(=O)O)[C@@H](C)[C@H]1C[C@H](OC(C)=O)[C@@]2(C)C3=CC[C@H]4C(C)(C)[C@H](OC(C)=O)CC[C@]4(C)C3=CC[C@]12C` [ganoderic acid T]: the “sensitivity of 95-D cells (wild-type p53) relative to H1299 cells (no p53)” value in [7] is 3.3 times.

Broadly, the melting point is the temperature, or range, at which the solid turns liquid. One may read the Kd as the constant that tells how readily two partners part at equilibrium. A low value points to a tighter complex. A word on the Ki: it is a measure of affinity in units of concentration, obtained from inhibition or displacement.

These data come from paper PMC10004777 (Molecules, 2023).
